Assay results as given in patent US10882871B2, “18/19F-labelled compounds which target the prostate specific membrane antigen” (BRITISH COLUMBIA CANCER AGENCY BRANCH, priority 2016, dated 2021).
Several values for one entry are separate records, joined by “and”; a condition that tells them apart may be missing. Equal values may be shown once.

Test system: tumors derived from LNCaP cells
Test: PET/CT imaging and biodistribution of F-18 labeled HTK-01069 and HTK-01070 in tumor-bearing mice
Type: in vivo, mouse (NODSCID 1L2RγKO male mice)
Method: LNCap cell line used in the tumor model was obtained commercially from ATTC (LNCaP clone FGC, CRL-1740). It was established from a metastatic site of left supraclavicular lymph node of human prostatic adenocarcinoma. Cells were cultured in PRMI 1640 (StemCell Technologies, Vancouver, BC) supplemented by 10% FBS, 100 U/mL penicillin and 100 μg/mL streptomycin at 37° C. in a humidified incubator containing 5% CO2. Cells grown to 80-90% confluence were then washed with sterile phosphate-buffered saline (1×PBS pH 7.4) and trypsinization. The collected cells number was counted with Hemacytometer (Hausser Scientific).
Tumor implantation: Imaging and biodistribution experiments were performed using NODSCID 1L2RγKO male mice. Three or four mice in each cage equipped with enrichments. The mice were maintained and the experiments were conducted in according to the guidelines established by Canadian Council on Animal Care and approved by Animal Ethics Committee of the University of British Columbia. Mice were housed under pathogen-free conditions and kept on twelve hours light and twelve hours dark cycle in the Animal Research Centre, British Columbia Cancer Research Centre, Vancouver, Canada.
Mice were anesthetized by inhalation with 2.5% isoflurane in 2.0 L/min of oxygen during cells implantation. Mice were implanted subcutaneously with 1×10^7 LNCaP cells behind left shoulder. Mice were imaged or used in biodistribution studies when the tumor grew up to reach 5-8 mm in diameter during 5-6 weeks.
PET/CT Imaging: PET imaging experiments were conducted using Siemens inveon micro PET/CT scanner. Each tumor bearing mouse was injected ˜6.44 MBq of F-18 labeled HTK-01069 and ˜7.08 MBq of F-18 labeled HTK-01070 through the tail vein under anesthesia. After one hour, the mice were sedated again with 2% isoflurane inhalation and positioned in the scanner. Static PET imaging was performed to determined activity uptake of tumor and other organs. A CT scan was obtained for localization and attenuation correction after segmentation for reconstructing the PET images. The data was acquired by scanning the mice for 10 minutes each. The mice were kept warm by a heating pad during acquisition. The mice were euthanized after imaging and followed by biodistribution. Please see FIGS. 2 and 3 of this specification for reconstructed PET images for 1L2RγKO mice injected with HTK-01069 and HTK-01070 respectively.
Blood was withdrawn immediately, and the organs of interest were quickly removed. Each organ was weighed and the tissue radioactivity was measured with a Cobra II gamma counter (Packard), normalized to the injected dose using a standard curve and expressed as the percentage of the injected dose per gram of tissue (% ID/g). Biodistribution data are shown for HTK-01069 in Tables 5, 6 and 7 and HTK-01070 in Tables 8, 9, 10 of the specification respectively.

[1] = 1 h p.i. with co-injection of 0.5 mg DCFPyL, Avg
[2] = 1 h p.i. with co-injection of 0.5 mg DCFPyL, single mice

Biodistribution Adrenals [1]: 0.20 % ID/g | Biodistribution Blood [1]: 0.46 % ID/g | Biodistribution Bone [1]: 0.12 % ID/g | Biodistribution Brain [1]: 0.02 % ID/g | Biodistribution Fat [1]: 0.04 % ID/g | Biodistribution Heart [1]: 0.22 % ID/g | Biodistribution Intestine [1]: 0.31 % ID/g | Biodistribution Kidney [1]: 2.11 % ID/g | Biodistribution Liver [1]: 0.06 % ID/g | Biodistribution Lung [1]: 0.09 % ID/g | Biodistribution Muscle [1]: 0.30 % ID/g | Biodistribution Pancreas [1]: 1.76 % ID/g | Biodistribution Seminal [1]: 1.87 % ID/g | Biodistribution Spleen [1]: 0.06 % ID/g | Biodistribution Stomach [1]: 0.09 % ID/g | Biodistribution Tail [1]: 0.38 % ID/g | Biodistribution Testes [1]: 0.08 % ID/g | Biodistribution Tumour [1]: 0.27 % ID/g | Biodistribution Brain [2]: 0.02 % ID/g | Biodistribution Spleen [2]: 0.06 % ID/g and 0.05 % ID/g | Biodistribution Adrenals (1 h p.i., Avg): 4.65 % ID/g | Biodistribution Blood (1 h p.i., Avg): 0.52 % ID/g | Biodistribution Bone (1 h p.i., Avg): 0.44 % ID/g | Biodistribution Brain (1 h p.i., Avg): 0.04 % ID/g | Biodistribution Fat (1 h p.i., Avg): 0.73 % ID/g | Biodistribution Heart (1 h p.i., Avg): 0.33 % ID/g | Biodistribution Intestine (1 h p.i., Avg): 0.33 % ID/g | Biodistribution Kidney (1 h p.i., Avg): 71.70 % ID/g | Biodistribution Liver (1 h p.i., Avg): 1.69 % ID/g | Biodistribution Lung (1 h p.i., Avg): 1.39 % ID/g | Biodistribution Muscle (1 h p.i., Avg): 0.23 % ID/g | Biodistribution Pancreas (1 h p.i., Avg): 0.33 % ID/g | Biodistribution Seminal (1 h p.i., Avg): 3.13 % ID/g | Biodistribution Spleen (1 h p.i., Avg): 5.01 % ID/g | Biodistribution Stomach (1 h p.i., Avg): 0.10 % ID/g | Biodistribution Tail (1 h p.i., Avg): 0.76 % ID/g | Biodistribution Testes (1 h p.i., Avg): 0.67 % ID/g | Biodistribution Tumour (1 h p.i., Avg): 8.28 % ID/g | Biodistribution Adrenals (2 h p.i., Avg): 1.79 % ID/g | Biodistribution Blood (2 h p.i., Avg): 0.16 % ID/g | Biodistribution Bone (2 h p.i., Avg): 0.10 % ID/g | Biodistribution Brain (2 h p.i., Avg): 0.02 % ID/g | Biodistribution Fat (2 h p.i., Avg): 0.38 % ID/g | Biodistribution Heart (2 h p.i., Avg): 0.47 % ID/g | Biodistribution Intestine (2 h p.i., Avg): 0.25 % ID/g | Biodistribution Kidney (2 h p.i., Avg): 42.78 % ID/g | Biodistribution Liver (2 h p.i., Avg): 0.05 % ID/g | Biodistribution Lung (2 h p.i., Avg): 0.09 % ID/g | Biodistribution Muscle (2 h p.i., Avg): 0.35 % ID/g | Biodistribution Pancreas (2 h p.i., Avg): 1.50 % ID/g | Biodistribution Seminal (2 h p.i., Avg): 6.41 % ID/g | Biodistribution Spleen (2 h p.i., Avg): 0.17 % ID/g | Biodistribution Stomach (2 h p.i., Avg): 1.30 % ID/g | Biodistribution Tail (2 h p.i., Avg): 0.56 % ID/g | Biodistribution Testes (2 h p.i., Avg): 0.28 % ID/g | Biodistribution Tumour (2 h p.i., Avg): 6.84 % ID/g | Biodistribution Brain (2 h p.i., single mice): 0.02 % ID/g and 0.03 % ID/g
SMILES: C[N+](C)(Cc1cn(Cc2ccc(C(=O)NCCCC[C@H](NC(=O)N[C@@H](CCC(=O)O)C(=O)O)C(=O)O)cc2)nn1)C[B-](F)(F)[18F] [F-18 HTK-01070]
Biodistribution Adrenals [2]: 0.23 % ID/g and 0.26 % ID/g and 0.17 % ID/g and 0.16 % ID/g | Biodistribution Heart [2]: 0.21 % ID/g and 0.27 % ID/g and 0.20 % ID/g and 0.19 % ID/g | Biodistribution Intestine [2]: 0.31 % ID/g and 0.30 % ID/g and 0.28 % ID/g and 0.32 % ID/g | Biodistribution Kidney [2]: 2.40 % ID/g and 2.05 % ID/g and 1.96 % ID/g | Biodistribution Liver [2]: 0.06 % ID/g and 0.08 % ID/g and 0.07 % ID/g and 0.05 % ID/g | Biodistribution Lung [2]: 0.11 % ID/g and 0.10 % ID/g and 0.07 % ID/g and 0.08 % ID/g | Biodistribution Muscle [2]: 0.31 % ID/g and 0.38 % ID/g and 0.23 % ID/g and 0.29 % ID/g | Biodistribution Pancreas [2]: 1.92 % ID/g and 1.65 % ID/g and 1.88 % ID/g and 1.57 % ID/g | Biodistribution Stomach [2]: 0.09 % ID/g and 0.14 % ID/g and 0.07 % ID/g | Biodistribution Tail [2]: 0.45 % ID/g and 0.35 % ID/g and 0.36 % ID/g | Biodistribution Testes [2]: 0.09 % ID/g and 0.10 % ID/g and 0.06 % ID/g | Biodistribution Tumour [2]: 0.35 % ID/g and 0.26 % ID/g and 0.21 % ID/g | Biodistribution Blood (1 h p.i., single mice): 0.46 % ID/g and 0.63 % ID/g and 0.50 % ID/g and 0.51 % ID/g | Biodistribution Bone (1 h p.i., single mice): 0.37 % ID/g and 0.33 % ID/g and 0.58 % ID/g and 0.52 % ID/g and 0.38 % ID/g and 0.45 % ID/g | Biodistribution Brain (1 h p.i., single mice): 0.03 % ID/g and 0.04 % ID/g and 0.05 % ID/g | Biodistribution Heart (1 h p.i., single mice): 0.36 % ID/g and 0.47 % ID/g and 0.37 % ID/g and 0.27 % ID/g and 0.24 % ID/g and 0.28 % ID/g | Biodistribution Intestine (1 h p.i., single mice): 0.26 % ID/g and 0.32 % ID/g and 0.42 % ID/g and 0.37 % ID/g and 0.31 % ID/g | Biodistribution Kidney (1 h p.i., single mice): 62.45 % ID/g and 54.11 % ID/g and 52.66 % ID/g and 91.10 % ID/g and 76.59 % ID/g and 93.32 % ID/g | Biodistribution Liver (1 h p.i., single mice): 1.51 % ID/g and 1.53 % ID/g and 1.65 % ID/g and 1.90 % ID/g and 1.60 % ID/g and 1.94 % ID/g | Biodistribution Lung (1 h p.i., single mice): 1.32 % ID/g and 1.35 % ID/g and 1.24 % ID/g and 1.21 % ID/g and 1.59 % ID/g and 1.61 % ID/g | Biodistribution Muscle (1 h p.i., single mice): 0.28 % ID/g and 0.21 % ID/g and 0.24 % ID/g and 0.17 % ID/g and 0.25 % ID/g and 0.22 % ID/g | Biodistribution Pancreas (1 h p.i., single mice): 0.30 % ID/g and 0.33 % ID/g and 0.35 % ID/g and 0.28 % ID/g and 0.32 % ID/g and 0.41 % ID/g | Biodistribution Spleen (1 h p.i., single mice): 5.58 % ID/g and 4.75 % ID/g and 5.97 % ID/g and 4.51 % ID/g and 4.95 % ID/g and 4.31 % ID/g | Biodistribution Stomach (1 h p.i., single mice): 0.08 % ID/g and 0.09 % ID/g and 0.10 % ID/g and 0.16 % ID/g and 0.12 % ID/g | Biodistribution Testes (1 h p.i., single mice): 0.94 % ID/g and 0.79 % ID/g and 0.49 % ID/g and 0.57 % ID/g and 0.58 % ID/g and 0.64 % ID/g | Biodistribution Tumour (1 h p.i., single mice): 7.56 % ID/g and 10.45 % ID/g and 8.06 % ID/g and 8.60 % ID/g and 8.31 % ID/g and 6.70 % ID/g | Biodistribution Heart (2 h p.i., single mice): 0.32 % ID/g and 0.58 % ID/g and 0.55 % ID/g and 0.44 % ID/g and 0.46 % ID/g | Biodistribution Intestine (2 h p.i., single mice): 0.21 % ID/g and 0.23 % ID/g and 0.26 % ID/g and 0.24 % ID/g and 0.32 % ID/g | Biodistribution Liver (2 h p.i., single mice): 0.04 % ID/g and 0.06 % ID/g and 0.05 % ID/g and 0.07 % ID/g | Biodistribution Muscle (2 h p.i., single mice): 0.31 % ID/g and 0.39 % ID/g and 0.27 % ID/g and 0.33 % ID/g and 0.44 % ID/g | Biodistribution Pancreas (2 h p.i., single mice): 1.30 % ID/g and 1.76 % ID/g and 1.41 % ID/g and 1.23 % ID/g and 1.80 % ID/g | Biodistribution Testes (2 h p.i., single mice): 0.23 % ID/g and 0.34 % ID/g and 0.26 % ID/g and 0.19 % ID/g and 0.36 % ID/g | Biodistribution Tumour (2 h p.i., single mice): 6.12 % ID/g and 6.47 % ID/g and 7.93 % ID/g
